According to patent US20260263644A1, “USE OF POSITRON MYOCARDIAL FATTY ACID METABOLISM IMAGING AGENT AND POSITRON 18F-FDG MYOCARDIAL GLUCOSE IMAGING AGENT IN PET COMBINED IMAGING” (priority 2023, published 2026):

Tests used:
[1] = test system: anterior wall myocardium with chronic myocardial infarction; experiment: Combined 18F-FDG and XTR003 PET myocardial metabolic imaging under fasting in the chronic myocardial infarction pig model; assay type: in vivo, Bama miniature pig; conditions: for uptake in the myocardial infarction area (PET myocardial metabolic image): 18F-FDG 1mCi first
Protocol: Each experiment used a Bama miniature pig approximately one year old, and the experiment was repeated three times. Taking the second of the three experiments as an example: the piglet weighed approximately 10 kg. A constrictive ring was placed at the site of the left anterior descending coronary artery to gradually induce chronic myocardial infarction in the anterior wall myocardium. Four weeks later, for comparative purposes, a ^99mTc-Sestamibi SPECT myocardial perfusion imaging was performed in the morning (this imaging is the gold standard for assessing viable and scarred myocardium in the infarcted area and was used in this study as a reference for comparing PET imaging results). In the afternoon, a one-day protocol for combined ^18F-FDG and XTR003 PET imaging was performed (with at least 2-hour interval from the SPECT conducted in the morning, during which fasting was maintained). ^18F-FDG PET imaging was performed first, followed by XTR003 PET imaging. The injection doses of the above two agents were 1mCi and 2.5mCi, respectively. XTR003 was injected 1 hour after the ^18F-FDG injection, followed immediately by PET imaging. Each experiment used a Bama miniature pig about one year old, and the experiment was repeated three times. Taking the second of the three experiments as an example: the piglet weighed approximately 11 kg. A constriction ring was placed at the site of the left anterior descending coronary artery to gradually induce chronic myocardial infarction in the anterior wall myocardium. Three weeks later, for comparative purposes, a 99mTc-Sestamibi SPECT myocardial perfusion imaging was performed in the morning. In the afternoon, a one-day protocol combining ^18F-FDG and XTR003 PET imaging was performed, ^18F-FDG PET imaging was performed first, followed by XTR003 PET imaging. The injection doses of the above two agents were 1mCi and 3.1mCi, respectively. Among them, XTR003 was injected 1 hour after the ^18F-FDG injection, followed immediately by PET imaging. A disease animal model was constructed as described in Example 1. After myocardial perfusion imaging, “a one-day protocol combining ^18F-FDG PET and XTR003 PET imaging” was performed, wherein XTR003 was injected one hour after the injection of ^18F-FDG, followed immediately by PET imaging. The only difference between the Comparative Example and Example 1 is that the injection doses of the above two agents were 1 mCi and 0.25 mCi, respectively. The results of the combined ^18F-FDG and XTR003 PET imaging (also used the second experiment out of three replicates as an example) are shown in FIGS. 3a-3b. In the Figs.: An animal model of the disease was constructed as described in Example 1, differing only in the order of imaging; specifically, XTR003 PET imaging was performed first, followed by ^18F-FDG PET imaging. The injection doses of the two agents were 1 mCi and 3 mCi, respectively. In the Figs.: An animal model of the disease was constructed as described in Example 3. After myocardial perfusion, “a one-day protocol combining XTR003 PET and ^18F-FDG PET imaging” was performed, wherein ^18F-FDG was injected one hour after the injection of XTR003, followed immediately by PET imaging. The only difference between the Comparative Example and Example 3 was that the injection doses of the above two agents were 1 mCi and 0.25 mCi, respectively. In the Figs.: The disease animal model was constructed according to the description of Example 1. The only difference from Example 1 was that after the myocardial perfusion imaging, a “two-day protocol combining ^18F-FDG PET and XTR003 PET imaging” was performed instead of the “one-day protocol”. In the Figs.: An animal model of the disease was constructed as described in Example 1. After myocardial perfusion imaging, a “a one-day protocol combining ^18F-FDG PET and XTR003 PET imaging” was performed, wherein XTR003 was injected one hour after the injection of ^18F-FDG, followed immediately by PET imaging. […]

normal myocardium = experiment: Separate PET imaging with a single imaging agent, without combination; assay type: in vivo, Bama miniature pig; conditions: Comparative Example 3; fasting; each agent administered separately, not in combination; FIGS. 7a, 7b
Protocol: Each experiment was performed using a Bama miniature pig of about one year old, and the experiment was repeated three times; taking the second experiment of the three experiments as an example: the piglet weighed about 10 kg, and the two imaging agents were administered separately for imaging rather than in combination. The results of separate PET imaging with ^18F-FDG and XTR003 are shown in FIGS. 7a and 7b, respectively.

## CCCCCCCCC([18F])CCCCC1CC1CC(=O)O (stereo not shown) [XTR003]
[1]; Comparative Example 1, one-day protocol, 18F-FDG 1 mCi first, then XTR003 0.25 mCi, FIGS. 3a-3b
  image quality of myocardial metabolic images: excessive image noise
[1]; Comparative Example 2, one-day protocol, XTR003 1 mCi first, then 18F-FDG 0.25 mCi, FIGS. 5a-5b
  image quality of myocardial metabolic images: normal image quality
[1]; Example 1, one-day protocol, XTR003 2.5mCi injected 1 hour later, FIGS. 1b-1c
  uptake in the myocardial infarction area (PET myocardial metabolic image): moderate uptake
[1]; Example 2, one-day protocol, XTR003 3.1mCi injected 1 hour later, FIGS. 2b-2c
  uptake in the myocardial infarction area (PET myocardial metabolic image): no XTR003 uptake
[1]; Example 3, one-day protocol, XTR003 1 mCi first, then 18F-FDG 3 mCi, FIGS. 4a-4b
  image quality of myocardial metabolic images: normal image quality
[1]; Example 4, two-day protocol, FIGS. 6a-6b
  image quality of myocardial metabolic images: normal image quality
Normal myocardium
  visibility of myocardial metabolic images: can show normal image
